Results from ChEMBL document CHEMBL1201862, “PubChem BioAssay data set” (2004).
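Protocol summary: plate cells (96-well), add compound at 5 concentrations, incubate 48 h, interpolate endpoints linearly. Abbreviation: GI50, concentration required for 50% inhibition of growth.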 The source made the active and inactive calls. Cut-off read from the data, not from the text of the source: active = GI50 up to about 1.1 µM and inactive = higher.

What was measured:
Test in all cases: NCI tumour cell line growth inhibition, 48 h
SK-OV-3 = test system: SK-OV-3
SF-539 = test system: SF-539
U-251 = test system: U-251
MDA-MB-435 = test system: MDA-MB-435
HOP-62 = test system: HOP-62
A549 = test system: A549
SF-295 = test system: SF-295
UACC-62 = test system: UACC-62
NCI/ADR-RES = test system: NCI/ADR-RES
NCI-H460 = test system: NCI-H460
KM12 = test system: KM12
OVCAR-5 = test system: OVCAR-5
SNB-75 = test system: SNB-75
DU-145 = test system: DU-145
SNB-19 = test system: SNB-19
A498 = test system: A498
NCI-H226 = test system: NCI-H226
SK-MEL-2 = test system: SK-MEL-2
Hs-578T = test system: Hs-578T
786-0 = test system: 786-0
SK-MEL-5 = test system: SK-MEL-5
PC-3 = test system: PC-3
UACC-257 = test system: UACC-257
SF-268 = test system: SF-268
RXF 393 = test system: RXF 393
BT-549 = test system: BT-549
NCI-H522 = test system: NCI-H522
IGROV-1 = test system: IGROV-1
ACHN = test system: ACHN
CAKI-1 = test system: CAKI-1
HCC 2998 = test system: HCC 2998
UO-31 = test system: UO-31
MCF7 = test system: MCF7
TK-10 = test system: TK-10
HCT-116 = test system: HCT-116
Malme-3M = test system: Malme-3M
COLO 205 = test system: COLO 205
NCI-H23 = test system: NCI-H23
LOX IMVI = test system: LOX IMVI
OVCAR-3 = test system: OVCAR-3
HCT-15 = test system: HCT-15
MDA-N = test system: MDA-N
M14 = test system: M14
MDA-MB-231 = test system: MDA-MB-231
EKVX = test system: EKVX

C#CCn1c(=O)c(I)cn(/C(=C\C(=O)OCC)C(=O)OCC)c1=O
GI50 (SK-OV-3): 17.9 µM (inactive)
GI50 (SF-539): 18.4 µM (inactive)
GI50 (U-251): 15.7 µM (inactive)
GI50 (MDA-MB-435): 17.1 µM (inactive)
GI50 (HOP-62): 17.4 µM (inactive)
GI50 (A549): 34.8 µM (inactive)
GI50 (SF-295): 18.7 µM (inactive)
GI50 (UACC-62): 16.9 µM (inactive)
GI50 (NCI/ADR-RES): 26.1 µM (inactive)
GI50 (NCI-H460): 20.3 µM (inactive)
GI50 (KM12): 17.3 µM (inactive)
GI50 (OVCAR-5): 20.6 µM (inactive)
GI50 (SNB-75): 17.1 µM (inactive)
GI50 (DU-145): 17.5 µM (inactive)
GI50 (SNB-19): 26.9 µM (inactive)
GI50 (A498): 16.7 µM (inactive)
GI50 (NCI-H226): 17.9 µM (inactive)
GI50 (SK-MEL-2): 18.9 µM (inactive)
GI50 (Hs-578T): 49.8 µM (inactive)

NC(N)=NCCC(O)(P(=O)(O)O)P(=O)(O)O
GI50 (786-0): 46.9 µM (inactive)
GI50 (SK-MEL-5): > 100 µM (inactive)
GI50 (PC-3): > 100 µM (inactive)
GI50 (SK-OV-3): > 100 µM (inactive)
GI50 (UACC-257): > 100 µM (inactive)
GI50 (SF-268): > 100 µM (inactive)
GI50 (RXF 393): > 100 µM (inactive)
GI50 (SF-539): > 100 µM (inactive)
GI50 (BT-549): > 100 µM (inactive)
GI50 (NCI-H522): > 100 µM (inactive)
GI50 (IGROV-1): > 100 µM (inactive)
GI50 (HOP-62): > 100 µM (inactive)
GI50 (A549): > 100 µM (inactive)
GI50 (ACHN): > 100 µM (inactive)
GI50 (CAKI-1): > 100 µM (inactive)
GI50 (SF-295): > 100 µM (inactive)
GI50 (HCC 2998): > 100 µM (inactive)
GI50 (UO-31): > 100 µM (inactive)
GI50 (MCF7): > 100 µM (inactive)
GI50 (UACC-62): > 100 µM (inactive)
GI50 (NCI/ADR-RES): > 100 µM (inactive)
GI50 (TK-10): > 100 µM (inactive)
GI50 (NCI-H460): > 100 µM (inactive)
GI50 (HCT-116): > 100 µM (inactive)
GI50 (Malme-3M): > 100 µM (inactive)
GI50 (COLO 205): > 100 µM (inactive)
GI50 (NCI-H23): > 100 µM (inactive)
GI50 (LOX IMVI): > 100 µM (inactive)
GI50 (KM12): > 100 µM (inactive)
GI50 (OVCAR-3): > 100 µM (inactive)
GI50 (OVCAR-5): > 100 µM (inactive)
GI50 (DU-145): > 100 µM (inactive)
GI50 (SNB-19): > 100 µM (inactive)
GI50 (HCT-15): > 100 µM
GI50 (NCI-H226): > 100 µM (inactive)
GI50 (MDA-N): > 100 µM (inactive)
GI50 (M14): > 100 µM (inactive)
GI50 (Hs-578T): 15 µM (inactive)
GI50 (MDA-MB-231): > 100 µM (inactive)
GI50 (EKVX): > 100 µM (inactive)
